Data on 15 compounds can be found in patent US20190307729A1, “ANTIMICROBIAL COMPOUNDS AND METHODS FOR USE THEREOF” (VERSITECH LIMITED, priority 2016, published 2019).

In this assay the test system is S. aureus Mu3. In words: Secondary screening of compound 13 analogues in combination with gentamicin (growth by OD 595 nm). The following applies: for 20 μM + 200 μg/ml Gentamicin Growth inhibition Percentage: 20 μM compound + 200 μg/ml gentamicin; for inhibition at 50 µM / activity at 5 µM / activity at 20 µM / activity at 50 µM / inhibition at 20 µM: Staphylococcus aureus; for activity at 5 µM / activity at 20 µM / activity at 50 µM: MU3, 16 h; for 50 μM + 200 μg/ml Gentamicin Growth inhibition Percentage: 50 μM compound + 200 μg/ml gentamicin.

The mark [1] stands for this setting: [Cpd] 5 μM, BHI only (no gentamicin), relative to DMSO = 1.
[2] abbreviates: [Cpd] 5 μM, [Genta] 100 ug/ml, relative to DMSO = 1.
Where [3] appears, read: [Cpd] 5 μM, [Genta] 200 ug/ml, relative to DMSO = 1.
[4] abbreviates: [Cpd] 20 μM, BHI only (no gentamicin), relative to DMSO = 1.
[5] abbreviates: [Cpd] 20 μM, [Genta] 100 ug/ml, relative to DMSO = 1.
[6] abbreviates: [Cpd] 20 μM, [Genta] 200 ug/ml, relative to DMSO = 1.
The mark [7] stands for this setting: [Cpd] 50 μM, BHI only (no gentamicin), relative to DMSO = 1.
Where [8] appears, read: [Cpd] 50 μM, [Genta] 100 ug/ml, relative to DMSO = 1.
Where [9] appears, read: [Cpd] 50 μM, [Genta] 200 ug/ml, relative to DMSO = 1.
The mark [10] stands for this setting: MU3, read-out: 50 μM + 200 μg/ml Gentamicin Growth inhibition Percentage, 50 μM compound + 200 μg/ml gentamicin, S. aureus Mu3.
[11] abbreviates: MU3, read-out: 20 μM + 200 μg/ml Gentamicin Growth inhibition Percentage.
Where [12] appears, read: MU3, read-out: 50 μM + 200 μg/ml Gentamicin Growth inhibition Percentage.
Setting [13] is: read-out: relative growth, [Cpd] 5 μM, BHI only (no gentamicin), relative to DMSO = 1.
The mark [14] stands for this setting: read-out: relative growth, [Cpd] 20 μM, BHI only (no gentamicin), relative to DMSO = 1.
Setting [15] is: read-out: relative growth, [Cpd] 50 μM, BHI only (no gentamicin), relative to DMSO = 1.

Like-named read-outs stand apart in the source and are kept apart here.

Description: All screening is done in 384-well polystyrene microtiter plates (Greiner Bio-One). Overnight culture of Mu3 is washed with BHI medium 3 times, diluted and plated to give 5×10^5 CFU/mL per well. The plates are incubated at 37° C. for 16 hours and growth is monitored by optical density reading at 595 nm using an automated DTX 880 multimode detector. Screening using BHI medium is designated as the background screen. […] Sub MIC concentration of antibiotics is selected for screening. BHI containing a final concentration for gentamicin 156.25 μg/mL is used correspondingly for individual experiments. […] Screening results with various antibiotics is normalized with the background screening to calculate the percentage of growth inhibition.
Identical experimental procedures are performed as primary screening procedures, except different concentrations of selected compound are tested.
Secondary like screening was performed with different concentrations of each analogue compounds were tested with different gentamicin concentration, 50 μM, 20 μM and 5 μM compound concentration were used against, BHI containing, 0 μg/ml, 100 μg/ml and 200 μg/ml gentamicin.

In the case of `O=C(O)CN1C(=O)/C(=C/c2ccccc2)SC1=S` [Compound 1], the relative growth under setting [1] came to 1.38; the relative growth under setting [2] is on record as 1.29; the relative growth under setting [3] came to 1.45; the relative growth under setting [4] turned out to be 1.22; the relative growth under setting [5] is 1.1; the relative growth under setting [6] was found to be 1.05. For the same compound, the relative growth reads like this: under setting [7], 1; under setting [8], 1.11; under setting [9], 1.01.

For `COC(=O)c1ccccc1` [Compound 2], the “20 μM + 200 μg/ml Gentamicin Growth inhibition Percentage” value (S. aureus Mu3, 20 µM) is 35%. Under setting [10], the inhibition at 50 µM turned out to be 76%. Further, the relative growth is 1.15 under setting [1]; 1.1 under setting [2]; 1.2 under setting [3]; 1.08 under setting [4]; 0.93 under setting [5]; 0.65 under setting [6]. For the same compound, the relative growth under setting [7] stood at 1.07, the relative growth under setting [8] was determined as 0.62 and the relative growth entry under setting [9] was “*0.24”.

Regarding `COc1cc(/C=C2\SC(=S)N(CC(=O)O)C2=O)ccc1OCc1ccc(Cl)cc1` [Compound 6], where the note is “read-out: relative growth”, the activity at 5 µM amounted to 120%. Besides, for the setting “read-out: relative growth”, the activity at 20 µM amounted to 114%. The activity at 50 µM (read-out: relative growth) was determined as 79%. The inhibition at 20 µM under setting [11] amounted to 90%. Under setting [12], the inhibition at 50 µM was determined as 89%. Moreover, the relative growth runs as follows: under setting [2], 1.13; under setting [3], 1.11; under setting [5], 0.61; under setting [6], “*0.1”; under setting [8], “*0.2”; under setting [9], “*0.11”.

On to `COc1ccc(/C=C2\SC(=S)N(CC(=O)O)C2=O)cc1OCc1ccc(Cl)cc1` [Compound 15], for which the activity at 5 µM (read-out: relative growth) was 102%. The activity at 20 µM (read-out: relative growth) worked out at 97%. Also, for the setting “read-out: relative growth”, the activity at 50 µM was determined as 79%. Under setting [11], the inhibition at 20 µM came to 91%. Further, the inhibition at 50 µM under setting [12] came to 89%. In addition, the relative growth runs as follows: under setting [2], 1.01; under setting [3], 1; under setting [5], 0.52; under setting [6], “*0.09”; under setting [8], “*0.18”; under setting [9], “*0.11”.

For the compound `COc1ccc(/C=C2\SC(=S)N(CC(=O)O)C2=O)cc1OCc1ccc(Cl)cc1Cl` [Compound 18], the activity at 5 µM (read-out: relative growth) came to 98%. For the same compound, the activity at 20 µM (read-out: relative growth) was determined as 85%. Moreover, under “read-out: relative growth”, the activity at 50 µM is 97%. For the same compound, the inhibition at 20 µM under setting [11] stood at 24%. Also, under setting [12], the inhibition at 50 µM was determined as 30%. The relative growth runs as follows: under setting [2], 0.97; under setting [3], 0.9; under setting [5], 0.8; under setting [6], 0.76; under setting [8], 0.88; under setting [9], 0.7.

On to `COc1cc(/C=C2\SC(=S)N(CC(=O)O)C2=O)ccc1OCc1ccccc1` [Compound 22], for which the activity at 5 µM (read-out: relative growth) stood at 108%. In addition, the activity at 20 µM (read-out: relative growth) was determined as 101%. For the same compound, the activity at 50 µM (read-out: relative growth) was determined as 94%. Besides, the inhibition at 20 µM under setting [11] stood at 12%. Further, under setting [12], the inhibition at 50 µM was determined as 48%. Further, the relative growth is, setting by setting: under setting [2], 1.08; under setting [3], 1.05; under setting [5], 0.99; under setting [6], 0.88; under setting [8], 0.91; under setting [9], 0.52.

Turning to `COc1ccc(/C=C2\SC(=S)N(CC(=O)O)C2=O)cc1OCc1ccccc1` [Compound 24], for the setting “read-out: relative growth”, the activity at 5 µM was 96%. The activity at 20 µM (read-out: relative growth) came to 93%. Further, where the note is “read-out: relative growth”, the activity at 50 µM came out at 92%. Besides, the inhibition at 20 µM under setting [11] came to 27%. Also, under setting [12], the inhibition at 50 µM was determined as 68%. Besides, the relative growth is on record as 0.94 under setting [2]; 0.95 under setting [3]; 0.92 under setting [5]; 0.73 under setting [6]; 0.72 under setting [8]; “*0.32” under setting [9].

For the compound `COc1cc(/C=C2\SC(=S)N(CC(=O)O)C2=O)ccc1OCc1ccccc1F` [Compound 25], the activity at 5 µM (read-out: relative growth) came to 96%. In addition, the activity at 20 µM (read-out: relative growth) amounted to 91%. Moreover, the activity at 50 µM (read-out: relative growth) stood at 95%. Further, the inhibition at 20 µM under setting [11] turned out to be 38%. The inhibition at 50 µM under setting [12] was determined as 58%. The relative growth was 0.95 under setting [2]; 0.92 under setting [3]; 0.89 under setting [5]; 0.62 under setting [6]; 0.91 under setting [8]; 0.42 under setting [9].

Consider `COC(=O)c1ccccc1` [Compound 29], for which the “20 μM + 200 μg/ml Gentamicin Growth inhibition Percentage” value (S. aureus Mu3, 20 µM) is 61%. Also, the “50 μM + 200 μg/ml Gentamicin Growth inhibition Percentage” value (S. aureus Mu3, 50 µM) was found to be 92%. In addition, under setting [13], the activity at 5 µM was 96%. Further, under setting [14], the activity at 20 µM turned out to be 90%. In addition, under setting [15], the activity at 50 µM was determined as 89%. The relative growth by setting is: under setting [2], 0.94; under setting [3], 0.89; under setting [5], 0.67; under setting [6], “*0.39”; under setting [8], “*0.11”; under setting [9], “*0.08”.

For `CCOc1ccc(/C=C2\SC(=S)N(CC(=O)O)C2=O)cc1` [Compound 31], the activity at 5 µM (read-out: relative growth) is 99%. Besides, the activity at 20 µM (read-out: relative growth) was determined as 96%. Also, the activity at 50 µM (read-out: relative growth) is 98%. Besides, under setting [11], the inhibition at 20 µM was 23%. Under setting [12], the inhibition at 50 µM is 39%. Moreover, the relative growth is 0.98 under setting [2]; 0.95 under setting [3]; 0.98 under setting [5]; 0.77 under setting [6]; 0.98 under setting [8]; 0.61 under setting [9].

Take `CCOc1cc(/C=C2\SC(=S)N(CC(=O)O)C2=O)ccc1OCc1ccc(Cl)c(Cl)c1` [Compound 34]: the activity at 5 µM (read-out: relative growth) is 112%. Besides, for the setting “read-out: relative growth”, the activity at 20 µM was found to be 109%. For the same compound, the activity at 50 µM (read-out: relative growth) is 113%. Under setting [11], the inhibition at 20 µM is 67%. Moreover, the inhibition at 50 µM under setting [12] was found to be 43%. Also, the relative growth is given as 0.9 under setting [2]; “*0.24” under setting [3]; 0.67 under setting [5]; “*0.33” under setting [6]; 1.16 under setting [8]; 0.57 under setting [9].

`COc1cc(/C=C2\SC(=S)N(CC(=O)O)C2=O)ccc1OCc1ccc(Br)cc1` [Compound 44]: where the note is “read-out: relative growth”, the activity at 5 µM came to 103%. The activity at 20 µM (read-out: relative growth) was determined as 103%. In addition, the activity at 50 µM (read-out: relative growth) came to 98%. Moreover, the inhibition at 20 µM under setting [11] is 17%. Moreover, the inhibition at 50 µM under setting [12] came out at 53%. The relative growth under setting [2] is given as 1.02; the relative growth under setting [3] amounted to 0.83; the relative growth under setting [5] worked out at 0.99; the relative growth under setting [6] was determined as 0.83; the relative growth under setting [8] is on record as 0.97; the relative growth under setting [9] turned out to be 0.47.

As to `COc1cc(C=C2SC(=S)N(CC(=O)O)C2=O)ccc1OCc1ccc(F)cc1Cl` [Compound 50], the “20 μM + 200 μg/ml Gentamicin Growth inhibition Percentage” value (S. aureus Mu3) is given as 36%. In addition, the “50 μM + 200 μg/ml Gentamicin Growth inhibition Percentage” value (S. aureus Mu3) amounted to 40%. Moreover, the relative growth under setting [1] is on record as 0.93; the relative growth under setting [2] was 0.91; the relative growth under setting [3] is recorded as 0.87; the relative growth under setting [4] turned out to be 0.82; the relative growth under setting [5] is 0.82; the relative growth under setting [6] is given as 0.64. Also, the relative growth under setting [7] is 0.96, the relative growth under setting [8] was determined as 0.9 and the relative growth under setting [9] worked out at 0.6.

As for `COCc1ccccc1` [Compound 52], the activity at 5 µM under setting [13] is 95%. Under setting [14], the activity at 20 µM stood at 86%. In addition, under setting [15], the activity at 50 µM is 76%. In addition, the inhibition at 20 µM (MU3, read-out: 20 μM + 200 μg/ml Gentamicin Growth inhibition Percentage, 20 μM compound + 200 μg/ml gentamicin, S. aureus Mu3) came out at 31%. In addition, under setting [10], the inhibition at 50 µM was determined as 64%. The relative growth under setting [2] is listed as 0.96; the relative growth under setting [3] stood at 0.93; the relative growth under setting [5] is 0.89; the relative growth under setting [6] is 0.69; the relative growth under setting [8] is listed as 0.74; the relative growth entry under setting [9] was “*0.36”.

For the compound `CC(C(=O)O)N1C(=O)/C(=C/c2ccc(Cl)cc2)SC1=S` (stereo not shown) [Compound 53], the activity at 5 µM (read-out: relative growth) was determined as 93%. Also, the activity at 20 µM (read-out: relative growth) was 89%. In addition, where the note is “read-out: relative growth”, the activity at 50 µM was 88%. Further, the inhibition at 20 µM under setting [11] was 24%. For the same compound, the inhibition at 50 µM under setting [12] came out at 62%. Also, the relative growth is listed as 0.92 under setting [2]; 0.89 under setting [3]; 0.9 under setting [5]; 0.76 under setting [6]; 0.84 under setting [8]; “*0.38” under setting [9].
